Experimental data: ChEMBL document CHEMBL5226284, “Small Molecule Inhibitors Targeting Biosynthesis of Ceramide, the Central Hub of the Sphingolipid Network” (J Med Chem, 2021)
Each block holds one compound with its values, some of them ahead of it.

Tests used:
[1] = Inhibition of bovine brain microsomes nSMase assessed as inhibition constant; set-up: species or system Bos taurus, Microsome
[2] = molecular target: T1, Sphingomyelin phosphodiesterase 2 (Rattus norvegicus, UniProt Q9ET64); experiment: Inhibition of rat brain microsomes nSMase; set-up: species or system Microsome
T1 sequence (Q9ET64 whole entry): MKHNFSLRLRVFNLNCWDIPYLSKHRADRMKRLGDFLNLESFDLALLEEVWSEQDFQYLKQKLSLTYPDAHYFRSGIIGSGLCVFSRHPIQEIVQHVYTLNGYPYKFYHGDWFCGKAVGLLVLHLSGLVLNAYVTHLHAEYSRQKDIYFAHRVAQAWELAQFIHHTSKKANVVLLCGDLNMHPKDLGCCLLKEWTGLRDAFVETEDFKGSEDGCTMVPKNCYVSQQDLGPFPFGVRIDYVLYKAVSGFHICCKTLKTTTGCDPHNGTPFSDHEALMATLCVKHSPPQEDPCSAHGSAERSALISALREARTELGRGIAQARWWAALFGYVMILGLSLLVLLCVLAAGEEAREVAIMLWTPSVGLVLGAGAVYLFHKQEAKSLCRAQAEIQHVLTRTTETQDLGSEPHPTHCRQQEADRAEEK

[3] = Inhibition of rat brain aSMase using HMU-PC as substrate incubated for 3 hrs by fluorescence plate reader assay; format: tissue-based
[4] = molecular target: T2, Sphingolipid delta(4)-desaturase DES1 (Homo sapiens, UniProt O15121); experiment: Inhibition of DES1 in human HGC-27 cell lysates; format: subcellular
T2 sequence (O15121 whole entry): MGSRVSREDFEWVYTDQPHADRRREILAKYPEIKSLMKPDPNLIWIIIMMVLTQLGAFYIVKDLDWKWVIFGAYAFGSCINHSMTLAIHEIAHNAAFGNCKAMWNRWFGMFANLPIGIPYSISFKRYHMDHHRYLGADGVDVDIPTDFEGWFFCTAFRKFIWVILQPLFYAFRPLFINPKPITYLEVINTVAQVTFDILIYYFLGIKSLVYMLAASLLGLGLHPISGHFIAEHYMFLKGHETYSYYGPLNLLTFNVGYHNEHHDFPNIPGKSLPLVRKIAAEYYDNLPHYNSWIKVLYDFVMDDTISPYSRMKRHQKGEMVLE

[5] = Inhibition of bovine brain microsomes nSMase; set-up: species or system Bos taurus, Microsome
[6] = molecular target: T3, Sphingomyelinase C (Bacillus cereus, UniProt P11889); experiment: Inhibition of Bacillus cereus SMaseC
T3 sequence (P11889 whole entry): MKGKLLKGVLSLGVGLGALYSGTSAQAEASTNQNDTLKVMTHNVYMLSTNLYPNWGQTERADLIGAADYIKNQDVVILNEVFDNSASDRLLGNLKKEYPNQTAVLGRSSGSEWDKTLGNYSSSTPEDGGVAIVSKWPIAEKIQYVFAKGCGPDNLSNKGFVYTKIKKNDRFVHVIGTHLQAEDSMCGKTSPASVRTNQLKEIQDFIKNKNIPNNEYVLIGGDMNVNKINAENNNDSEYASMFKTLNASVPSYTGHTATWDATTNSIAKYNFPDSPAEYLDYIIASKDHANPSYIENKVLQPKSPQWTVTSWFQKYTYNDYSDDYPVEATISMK

[7] = Inhibition of rat brain aSMase using HMU-PC as substrate incubated for 3 hrs by fluorescence based analysis; format: tissue-based
[8] = molecular target: T4, Sphingomyelin phosphodiesterase 2 (Mus musculus, UniProt O70572); experiment: Inhibition of mouse nSMase
T4 sequence (O70572 whole entry): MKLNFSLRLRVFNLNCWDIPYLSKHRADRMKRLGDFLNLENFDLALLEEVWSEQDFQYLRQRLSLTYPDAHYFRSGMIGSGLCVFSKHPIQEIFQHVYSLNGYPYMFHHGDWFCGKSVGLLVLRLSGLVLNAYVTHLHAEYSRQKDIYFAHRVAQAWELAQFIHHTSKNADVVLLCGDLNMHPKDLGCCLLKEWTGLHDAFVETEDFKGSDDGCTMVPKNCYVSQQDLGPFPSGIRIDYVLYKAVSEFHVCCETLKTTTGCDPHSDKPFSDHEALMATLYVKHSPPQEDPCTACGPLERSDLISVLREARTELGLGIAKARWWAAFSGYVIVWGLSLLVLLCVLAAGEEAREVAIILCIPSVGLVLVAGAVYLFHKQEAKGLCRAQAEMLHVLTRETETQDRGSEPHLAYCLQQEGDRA

[9] = molecular target: T5, Sphingomyelin phosphodiesterase 2 (Rattus norvegicus) (UniProt Q9ET64); experiment: Inhibition of rat brain microsomes nSMase at 100 uM incubated for 60 mins relative to control; details: Microsome
T5 sequence (whole entry): T1 sequence (Q9ET64 whole entry)

[10] = molecular target: T5, Sphingomyelin phosphodiesterase 2 (Rattus norvegicus); experiment: Inhibition of rat brain microsomes nSMase at 100 uM relative to control; details: Microsome
[11] = molecular target: T6, Ceramide synthase 1 (Homo sapiens) (UniProt P27544); experiment: Inhibition of CerS1 (unknown origin) at 10 uM relative to control
T6 sequence (whole entry): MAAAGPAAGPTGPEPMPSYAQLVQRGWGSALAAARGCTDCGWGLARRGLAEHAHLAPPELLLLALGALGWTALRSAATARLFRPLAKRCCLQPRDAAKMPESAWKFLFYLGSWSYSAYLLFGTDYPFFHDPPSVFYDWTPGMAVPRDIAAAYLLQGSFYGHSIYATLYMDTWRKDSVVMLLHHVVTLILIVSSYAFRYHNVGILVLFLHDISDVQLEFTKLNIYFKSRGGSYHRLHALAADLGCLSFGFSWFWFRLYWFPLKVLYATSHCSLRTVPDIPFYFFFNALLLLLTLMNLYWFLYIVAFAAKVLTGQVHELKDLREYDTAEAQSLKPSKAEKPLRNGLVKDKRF

[12] = molecular target: Ceramide synthase 6 (Homo sapiens) (UniProt Q6ZMG9); experiment: Inhibition of CerS6 (unknown origin) at 10 uM relative to control
[13] = system: HEK293; experiment: Competitive inhibition of CerS in HEK293 cells at 10 uM relative to control; format: cell-based; details: Homo sapiens
[14] = molecular target: Ceramide synthase 5 (Homo sapiens) (UniProt Q8N5B7); experiment: Inhibition of CerS5 (unknown origin) at 10 uM relative to control
[15] = Inhibition of CerS human HCT-116 cells microsomal fraction assessed as reduction in C24 dihydroceramide synthesis by LC-MS/MS analysis; format: microsomes, Microsome
[16] = molecular target: T5, Sphingomyelin phosphodiesterase 2 (Rattus norvegicus); experiment: Inhibition of rat brain microsomes nSMase at 200 uM measured after 90 mins relative to control; details: Microsome
[17] = molecular target: Sphingomyelin phosphodiesterase 2 (Mus musculus) (UniProt O70572); experiment: Inhibition of nSMase in mouse Splenocyte at 1 uM relative to control; format: cell-based
[18] = organism: Bos taurus; experiment: Inhibition of bovine brain microsomes nSMase measured after 60 mins relative to control; details: Microsome

Ceramide synthase 5 (Homo sapiens), sequence (Q8N5B7 whole entry): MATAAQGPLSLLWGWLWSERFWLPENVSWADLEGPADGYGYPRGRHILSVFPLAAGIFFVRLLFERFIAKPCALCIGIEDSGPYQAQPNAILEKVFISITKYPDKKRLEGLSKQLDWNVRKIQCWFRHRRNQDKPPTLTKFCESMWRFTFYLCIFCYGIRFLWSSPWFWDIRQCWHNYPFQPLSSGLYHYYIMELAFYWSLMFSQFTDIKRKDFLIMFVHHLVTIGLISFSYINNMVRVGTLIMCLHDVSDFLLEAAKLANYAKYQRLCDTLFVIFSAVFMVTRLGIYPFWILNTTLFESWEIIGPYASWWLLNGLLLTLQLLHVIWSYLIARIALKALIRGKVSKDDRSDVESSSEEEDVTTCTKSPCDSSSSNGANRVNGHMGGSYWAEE
Ceramide synthase 6 (Homo sapiens), sequence (Q6ZMG9 whole entry): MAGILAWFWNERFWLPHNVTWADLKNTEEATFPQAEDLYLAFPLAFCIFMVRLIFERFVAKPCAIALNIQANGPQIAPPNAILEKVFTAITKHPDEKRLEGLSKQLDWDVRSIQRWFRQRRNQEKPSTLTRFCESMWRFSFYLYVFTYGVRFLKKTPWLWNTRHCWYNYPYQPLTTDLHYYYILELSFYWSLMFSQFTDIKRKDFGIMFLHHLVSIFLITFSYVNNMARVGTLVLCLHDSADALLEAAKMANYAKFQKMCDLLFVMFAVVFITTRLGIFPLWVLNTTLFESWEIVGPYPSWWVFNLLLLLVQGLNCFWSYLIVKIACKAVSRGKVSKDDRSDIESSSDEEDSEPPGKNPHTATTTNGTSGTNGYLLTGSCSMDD

Structure (SMILES): CCCCCCCC(N)(P(=O)(O)O)P(=O)(O)O
IC50 [3]: 0.04 µM

Structure (SMILES): CCCCCCCCCCCCCCCC(=O)N[C@@H](CC(F)(F)P(=O)(O)O)[C@H](O)c1ccccc1
IC50 [5]: 181 µM

Structure (SMILES): CCCCCCC[C@@H](O)[C@H](CCCP(=O)([O-])OCC[N+](C)(C)C)NC(=O)CCCCC
IC50 [6]: 78 µM

Structure (SMILES): CCCCCCC[C@@H](O)[C@H](CC(F)(F)P(=O)([O-])OCC[N+](C)(C)C)NC(=O)CCCCC
IC50 [6]: 57 µM

Structure (SMILES): CCCCCCOS(=O)(=O)O[C@@H]1[C@H](O)[C@H](OP(=O)(O)O)[C@@H](O)[C@H](OP(=O)(O)O)[C@H]1O
IC50 [7]: 43 µM

Structure (SMILES): S=c1[nH]nc(Nc2ccc(Cl)cc2)n1-c1ccc(Cl)cc1
IC50 [8]: 2.4 µM

Structure (SMILES): CCCCCCCCCCCC(O)(P(=O)(O)O)P(=O)(O)O
IC50 [3]: 0.07 µM

Structure (SMILES): CCCCCCCCOS(=O)(=O)O[C@@H]1[C@H](O)[C@H](OP(=O)(O)O)[C@@H](O)[C@H](OP(=O)(O)O)[C@H]1O
IC50 [7]: 4 µM

Structure (SMILES): CC(C)C/C=C/C=C/C(=O)NC1=CC(=O)[C@H]2O[C@H]2C1=O
inhibition [9]: 98% | inhibition [10]: 90%

Structure (SMILES): COc1c(O)c(C)c(C/C=C(\C)CC/C=C(\C)CC/C=C(\C)CC/C=C(\C)CC/C=C(\C)CCC=C(C)C)c(O)c1OC
inhibition [10]: > 90%

Structure (SMILES): CCCCCCCCCCCCCCCCC(=O)NC(CO)(CO)CCc1ccc(OCCCCCCC)cc1
IC50 [15]: 63.6 µM

More lines, main results first:

Ki [1]: 1.7 µM
Structure (SMILES): CCCCCCCCCCCCNC(=S)N[C@H](CO)[C@H](O)c1ccc([N+](=O)[O-])cc1

IC50 [2]: 16 µM
Structure (SMILES): COC(C)(C)/C=C/c1cc(O)ccc1O

IC50 [2]: 4.2 µM
Structure (SMILES): CC(C)(O)/C=C/C1=CC(=O)C=CC1=O

IC50 [4]: 0.155 µM
Structure (SMILES): CCCCCCCCCCC/C=C/CC[C@@H](O)[C@H](CO)NC(=O)CCCCCCC

IC50 [7]: > 100 µM
Structure (SMILES): CCOS(=O)(=O)O[C@@H]1[C@H](O)[C@H](OP(=O)(O)O)[C@@H](O)[C@H](OP(=O)(O)O)[C@H]1O

inhibition [11]: 76%
Structure (SMILES): C[C@@](N)(CO)CCc1ccc(OCc2ccccc2)cc1

inhibition [12]: 50% | inhibition [14]: 50% | inhibition [11]: > 90%
Structure (SMILES): CCCCCCCOc1ccc(CC[C@](C)(N)CO)cc1
inhibition [13]: 50%

IC50 [2]: 34 µM
Structure (SMILES): CC(C)(O)C(O)Cc1cc(O)ccc1O (stereo not drawn)

inhibition [16]: 23%
Structure (SMILES): CCCCCCCCCC(=O)N[C@H](Cc1ccccc1)C(=O)NC1=CC2(CO2)C(=O)C=C1 (stereo partly drawn)

IC50 [2]: 17 µM
Structure (SMILES): CC(C)(O)/C=C/c1cc(O)ccc1O

inhibition [17]: 80%
Structure (SMILES): N=C(N)N/N=C/c1ccc(Oc2cccc(OCc3ccccc3)c2)cc1

Ki [1]: 2.5 µM | inhibition [18]: 90%
Structure (SMILES): CCCCCCCCCCCCCCNC(=S)N[C@H](CO)[C@H](O)c1ccc([N+](=O)[O-])cc1
